The test system of assay [1] is Salmonella typhimurium. Briefly: Antibacterial activity against Salmonella enterica subsp. enterica serovar Typhimurium after 24 hr. It counts as functional.
For assay [2], the system named is Spodoptera littoralis. Briefly: Antifeedant activity against Spodoptera littoralis. The class given is functional, organism-based.
In assay [3] the test system is SK-MEL-28. Briefly: Cytotoxicity against Homo sapiens (human) SK-MEL-28 cells. The class given is functional, cell-based.
Assay [4] deals with Spodoptera littoralis. Briefly: Antifeedant activity against Spodoptera littoralis at 100 ppm. The class given is functional.
For assay [5], the system named is HT-29. Briefly: Cytotoxicity against Homo sapiens (human) HT-29 cells. The class given is functional, cell-based.
The test system of assay [6] is Cryptococcus neoformans. Nature of the assay: Antifungal activity against Cryptococcus neoformans CECT 1075 after 48 hr. Particulars: CECT 1075, 48 h. The class given is functional.
For assay [7], the system named is P388. Nature of the assay: Cytotoxicity against […] cells. It counts as functional, cell-based. Particulars: Mus musculus.
Assay [8] deals with Saccharomyces cerevisiae. Nature of the assay: Antifungal activity against Saccharomyces cerevisiae S3 after 48 hr. The class given is functional. Conditions: S3, 48 h.
Assay [9] deals with Bacillus subtilis. Briefly: Antibacterial activity against Bacillus subtilis CECT 397 after 24 hr. The class given is functional. Conditions: CECT 397, 24 h.
Assay [10] concerns Pseudomonas aeruginosa. Briefly: Antibacterial activity against Pseudomonas aeruginosa after 24 hr. The class given is functional.
For assay [11], the system named is Proteus. Briefly: Antibacterial activity against Proteus after 24 hr. The class given is functional.
Assay [12] deals with Enterococcus faecalis. Nature of the assay: Antibacterial activity against Enterococcus faecalis OGIX after 24 hr. The class given is functional.
For assay [13], the system named is Spodoptera littoralis. Briefly: Antifeedant activity against Spodoptera littoralis at 10 ppm. It counts as functional.
For assay [14], the system named is Staphylococcus aureus. Nature of the assay: Antibacterial activity against Staphylococcus aureus ATCC 8 after 24 hr. The class given is functional. Particulars: ATCC 8, 24 h.
The test system of assay [15] is A549. Nature of the assay: Cytotoxicity against Homo sapiens (human) A549 cells. The class given is functional, cell-based.
The test system of assay [16] is Candida albicans. Nature of the assay: Antifungal activity against Candida albicans CECT 1394 after 48 hr. The class given is functional. Particulars: CECT 1394, 48 h.

≈ marks a conversion by molar mass, not a printed value.

This note sets out measurements from ChEMBL document CHEMBL3045642, “Synthesis of biologically active drimanes and homodrimanes from ()-sclareol” (Tetrahedron, 1995).

`CC1(C)CCC[C@]2(C)[C@@H](CC=O)C(C=O)=CC[C@@H]12`: the minimal inhibitory concentration (MIC) in assay [1] is over 100 µg/mL; in assay [6], over 100 µg/mL; in [8] it was 100 µg/mL (≈ 403 µM); in [9] it was 100 µg/mL (≈ 403 µM); in assay [10], 100 µg/mL (≈ 403 µM); in assay [11], over 100 µg/mL. Further, the MIC is over 100 µg/mL in assay [12], 100 µg/mL (≈ 403 µM) in assay [14] and over 100 µg/mL in assay [16]. The Activity result in assay [2] was “Dose-dependent effect”. Moreover, the IC50 in assay [3] amounted to 5 µg/mL (≈ 20.1 µM); in assay [5] it was 5 µg/mL (≈ 20.1 µM); in assay [7], 2.5 µg/mL (≈ 10.1 µM); in [15] it was 2.5 µg/mL (≈ 10.1 µM). Besides, the AFI in assay [4] is on record as 51.7%; in assay [13], -17.9%.
`C=C1C(=O)C[C@H]2C(C)(C)CCC[C@]2(C)[C@H]1C=O`: the AFI in [4] was found to be 18.5%; in assay [13] it was 40.2%.
Take `CC1(C)CCC[C@]2(C)[C@@H](C=O)C(C=O)=CC[C@@H]12` [POLYGODIAL]: the minimal inhibitory concentration (MIC) in assay [1] was over 100 µg/mL; in assay [6] it was over 100 µg/mL; in assay [8], 100 µg/mL (≈ 427 µM); in [9], over 100 µg/mL; in [10], over 100 µg/mL; in assay [11], over 100 µg/mL. For the same compound, the minimal inhibitory concentration (MIC) in [12], in assay [14] and in assay [16] was over 100 µg/mL throughout. Moreover, the IC50 in [3] is 2.5 µg/mL (≈ 10.7 µM). Also, the AFI was 7.4% in assay [4] and 24.9% in [13].
As to `C=C1C(=O)C[C@H]2C(C)(C)CCC[C@]2(C)[C@H]1CC=O`, the MIC in assay [1] is over 100 µg/mL; in [6] it was over 100 µg/mL; in assay [8], over 100 µg/mL; in assay [9], over 100 µg/mL; in assay [10], 100 µg/mL (≈ 403 µM); in assay [11], over 100 µg/mL. The minimal inhibitory concentration (MIC) in [12], in assay [14] and in assay [16] was over 100 µg/mL each time. Also, the Activity entry in assay [2] is “Dose-dependent effect”. The IC50 in [3] turned out to be 2.5 µg/mL (≈ 10.1 µM); in [5] it was 2.5 µg/mL (≈ 10.1 µM); in [7] it was 1.2 µg/mL (≈ 4.83 µM); in [15], 1.2 µg/mL (≈ 4.83 µM). Besides, the AFI in assay [4] is 43.7%; in [13], -10%.
